How the values were obtained:
Type in all cases: cell-based, human
ACLY mRNA = assay: qRT-PCR of ACLY mRNA in BT474 cells; details: shRNA or 20 μM GW9662 for 48 h
Experimental: (§1) FIG. 4 NR1D1 and PBP coordinate fatty acid metabolism in breast cancer cells. (a) BT474, MDA-MB-361, MCF-7 and HMEC cells were stained with Oil-Red O lipid and hematoxylin nuclear stains. (b) Fat stores were quantified by BODIPY 493/503 lipid probe staining (Error bars are s.d from 3 individual experiments). (c) FASN, ACLY, ACACA and FADS2 mRNA levels of BT474 cells treated with luciferase (control), PBP or NR1D1 shRNAs, or with vehicle and 20 μM of GW9662 for 48 h, analyzed by qRT-PCRs. (Error bars are s.d from 3 experiments; ***P<0.001, **P=0.005) (d) BT474 cells were transfected with FASN, ACLY and ACACA shRNAs and co-transfected with GFP. Transfected cells were counted at 24 h and 72 h and the 72h-to-24 h ratio for each shRNA was calculated and expressed as % of the control shRNA (luciferase). (Error bars are s.d from 3 individual experiments; **P<0.01, ***P<0.002). (e) BODIPY images and (f) quantification of BT474 cells transfected with luciferase (control), PBP or NR1D1 shRNAs and co-transfected with DsRed (Error bars are s.d from 3 individual experiments; ***P<0.03). Arrows indicate transfected cells.
(§2) Cell viability—apoptosis assays. […] At least 30 fields were imaged per single experiment. […] Immunoblotting. […] PCR reaction was run using standard conditions.

[1] = test system: nonoverexpressing breast cancer cell lines (MCF-7, MDA-MB-453, MDA-MB-468), HMECs, HEK 293FT; assay: alamarBlue proliferation of shRNA-transfected ERBB2 non-overexpressing cell lines; details: MCF-7, MDA-MB-453, MDA-MB-468, HMEC, shRNA transfection
From the text: (§3) FIG. 1 An RNAi screen targeting genes overexpressed in breast cancer. (a) Three transfection mixes were produced for each shRNA and each was transfected into triplicate wells of BT474 cells. AlamarBlue was used to monitor cell proliferation and viability. […] (b) The genetic and functional linkage of NR1D1 and PBP. Mb refers to map position on chromosome 17. (c) ERBB2-overexpressing (OEX) and ERBB2 non-overexpressing (non-OEX) breast cancer cell lines as well as the (non-OEX) HMEC and HEK 293 cells were transfected and assayed as in (a). […] Genes clustered with ERBB2 are boxed.
(§4) To assess the specificity of effect of each shRNA on cell proliferation, those causing the greatest decrease in BT474 cell proliferation were transfected in a variety of cell lines, including ERBB2 overexpressing (BT474, MDA-MB-361) and nonoverexpressing breast cancer cell lines (MCF-7, MDA-MB-453, MDA-MB-468), normal human mammary epithelial cells (HMECs) and a non-breast tumorigenic cell line (HEK 293FT). […] PBP, NRID1 and PFN2 shRNAs clustered with ERBB2.
(§5) RNAi screen, transfections and constructs. The flag-RevErba (flag-NR1D1) overexpression construct was a generous gift of M. Lazar. The LSXN-neu* (ERBB2) overexpression construct was a generous gift of L. Petti. shRNA constructs were expressed from the pSHAG-MAGIC 2 (pSM2) vector and derived from a genome-wide shRNA library^31. ShRNAs targeting the firefly (Photinus pyralis) luciferase gene were used as controls. Transfection efficiency was monitored by co-transfection with a modified MSCV-Puro vector expressing green fluorescent protein (GFP). The alamarBlue (Biosource) assay was performed 96 h post-transfection, since BT474 cells have a population doubling time of ˜100 hours. […] For quantification of alamarBlue we used a BioTek HT Synergy plate reader. AlamarBlue values from the RNAi screens on other cell types were also calculated as above and subjected to hierarchical cluster analysis using Cluster 2.11 (M. Eisen Lab).

FADS2 mRNA = assay: qRT-PCR of FADS2 mRNA in BT474 cells; details: shRNA or 20 μM GW9662 for 48 h
Experimental: as §1, §2

FASN mRNA = assay: qRT-PCR of FASN mRNA in BT474 cells; details: shRNA or 20 μM GW9662 for 48 h
Experimental: as §1, §2

[2] = test system: ERBB2 overexpressing (BT474, MDA-MB-361) breast cancer cell lines; assay: alamarBlue proliferation of shRNA-transfected ERBB2-overexpressing cell lines; details: shRNA transfection
From the text: as §3, §4, §5

ERBB2 mRNA = assay: qRT-PCR of ERBB2 mRNA in BT474 cells; details: shRNA 48 h
Experimental: Results are shown as percentage of control. (**P=0.03). (c) BT474 cells were transfected with luciferase (control), PBP and NR1D1 shRNAs and co-transfected with GFP. Green cells were counted at intervals and expressed as percentage of control. (Error bars are s.d from 3 individual experiments; *P<0.08, **P<0.03, ***P<0.005). (d) BT474 cells were transfected with luciferase (control), PBP or NR shRNAs for 48 h. Immunofluorescence was performed for cleaved Caspase-3 signal; cell nuclei were stained with Hoechst 33243. (e) Cells from […] were counted for cleaved Caspase-3 signal. (Error bars are s.d from 3 individual experiments; ***P<0.0003). (f) BT474 cells were transfected with luciferase (control) PBP, NR1D1 or PBP and NR1D1 shRNAs together and co-transfected with GFP. Transfected cells were counted at 24 h and 72 h and the 72 h-to-24 h ratio for each shRNA was calculated and expressed as % of the control shRNA (luciferase). (Error bars are s.d from 3 individual experiments; **P=0.01, ***P<0.002). (g) Cells from (f) were counted for cleaved Caspase-3 signal. (Error bars are s.d from 3 individual experiments; ***P<0.0001). (h) ERBB2 mRNA levels of BT474 cells transfected with luciferase (control), PBP or NR1D1 shRNAs for 48 h, analyzed by qRT-PCRs. (Error bars are s.d from 3 individual experiments; ***P=0.0001).
Cell viability—apoptosis assays. […]

Substance	ACLY transcript level (ACLY mRNA)	effect on other cell lines or HMECs [1]	FADS2 transcript levels (FADS2 mRNA)	FASN transcript level (FASN mRNA)	viability of ERBB2-positive cells [2]	mRNA levels of ERBB2 (ERBB2 mRNA)
NR1D1 shRNA: shRNA, mature sequence GGCATGGTGTTACTGTGTA (shRNA)	reduced	without effect on other cell lines or HMECs	downregulated	reduced	specifically decreased the viability of ERBB2-positive cells	no effect
PBP shRNA: shRNA, mature sequence CCGAGTTCCTCTTATCCTA (shRNA)	reduced	without effect on other cell lines or HMECs	downregulated	reduced	specifically decreased the viability of ERBB2-positive cells	significantly decreased

— patent US20100267803A1, “Regulators Of Fat Metabolism As Anti-Cancer Targets” (The Research Foundation of State University Of New York, priority 2008, published 2010)
